Data: patent US9695155B2, “Herbicidal substituted pyrimidinyloxy benzene compounds” (E. I. DU PONT DE NEMOURS AND COMPANY, priority 2013, dated 2017)

Key:
[1] = system: Heteranthera limosa; assay: Test B flooded paddy test; format: in vivo; details: Flood, 250 g ai/ha; 0 to 100 scale where 0 is no effect and 100 is complete control
In short: (§1)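 2-leaf stage plants; pots flooded to 3 cm, compound added to paddy water, depth maintained. Greenhouse 13–15 d. Visual rating vs untreated controls, 0 (no effect) to 100 (complete control); dash = no result.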

[2] = system: large (Lg) crabgrass; assay: Test A postemergence; format: in vivo, Digitaria sanguinalis
In short: (§2)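 Visual injury scored 0–100 (100 = complete control) against untreated controls about 10 days after treatment in a greenhouse. Test chemicals, formulated with surfactant in non-phytotoxic solvent, were sprayed on soil preemergence or on 2-10 cm, one- to two-leaf plants postemergence.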

[3] = system: giant foxtail; assay: Test A preemergence; format: in vivo, Setaria faberii; details: for Foxtail, Giant plant response rating: 500 g ai/ha
In short: as §2

[4] = system: pigweed; assay: Test A postemergence; format: in vivo, Amaranthus retroflexus
In short: as §2

[5] = system: wheat; assay: Test A postemergence; format: in vivo, Triticum aestivum
In short: as §2

[6] = system: corn; assay: Test A postemergence; format: in vivo, Zea mays
In short: as §2

[7] = system: sedge, umbrella; assay: Test B flooded paddy test; format: in vivo, Cyperus difformis; details: Flood, 250 g ai/ha; 0 to 100 scale where 0 is no effect and 100 is complete control
In short: as §1

[8] = system: velvetleaf; assay: Test A postemergence; format: in vivo, Abutilon theophrasti
In short: as §2

[9] = system: wheat; assay: Test A preemergence; format: in vivo, Triticum aestivum; details: for Wheat plant response rating: 500 g ai/ha
In short: as §2

[10] = system: barnyardgrass; assay: Test B flooded paddy test; format: in vivo, Echinochloa crus-galli; details: Flood, 250 g ai/ha; 0 to 100 scale where 0 is no effect and 100 is complete control
In short: as §1

[11] = system: giant foxtail; assay: Test A postemergence; format: in vivo, Setaria faberii
In short: as §2

[12] = system: velvetleaf; assay: Test A preemergence; format: in vivo, Abutilon theophrasti; details: for Velvetleaf plant response rating: 500 g ai/ha
In short: as §2

[13] = system: barnyardgrass; assay: Test A postemergence; format: in vivo, Echinochloa crus-galli
In short: as §2

[14] = system: pigweed; assay: Test A preemergence; format: in vivo, Amaranthus retroflexus; details: for Pigweed plant response rating: 500 g ai/ha
In short: as §2

[15] = system: rice; assay: Test B flooded paddy test; format: in vivo, Oryza sativa; details: Flood, 250 g ai/ha; 0 to 100 scale where 0 is no effect and 100 is complete control
In short: as §1

[16] = system: large (Lg) crabgrass; assay: Test A preemergence; format: in vivo, Digitaria sanguinalis; details: for Crabgrass, Large plant response rating: 500 g ai/ha
In short: as §2

[17] = system: barnyardgrass; assay: Test A preemergence; format: in vivo, Echinochloa crus-galli; details: for Barnyardgrass plant response rating: 500 g ai/ha
In short: as §2

[18] = system: corn; assay: Test A preemergence; format: in vivo, Zea mays; details: for Corn plant response rating: 500 g ai/ha
In short: as §2

[19] = system: morningglory; assay: Test A preemergence; format: in vivo, Ipomoea spp.; details: for Morningglory plant response rating: 500 g ai/ha
In short: as §2

[20] = system: morningglory; assay: Test A postemergence; format: in vivo, Ipomoea spp.
In short: as §2

[21] = 125 g ai/ha, 0 to 100 scale where 0 is no effect and 100 is complete control
[22] = 500 g ai/ha, 0 to 100 scale where 0 is no effect and 100 is complete control
[23] = 0 to 100 scale where 0 is no effect and 100 is complete control
[24] = 500 g ai/ha, 0 to 100 scale, 0 no effect, 100 complete control
[25] = 0 to 100 scale, 0 no effect, 100 complete control, approx. 10 days

`COc1cnc(Oc2ccccc2-n2cccn2)nc1` [Compound 227] was tested, and the “Plant response rating, Ducksalad” value [1] was 0, the “Crabgrass, Large plant response rating” value [2, 21] was 0 and the “Plant response rating, Crabgrass, Large” value [2, 22] was 10. The “Foxtail, Giant plant response rating (0 to 100 scale)” value (“Foxtail … (0 to 100 scale)” below) ([3]; 125 g ai/ha) was 0, the “Foxtail, Giant plant response rating” value [3, 23] was 10 and the “Pigweed plant response rating” value [4, 21] was 10. For the same compound, the “Plant response rating, Pigweed” value [4, 22] was 60, the “Wheat plant response rating” value [5, 21] was 0 and the “Plant response rating, Wheat” value [5, 22] was 0. For the same compound, the “Corn plant response rating” value [6, 21] was 0, the “Plant response rating, Corn” value [6, 22] was 0 and the “Plant response rating, Sedge, Umbrella” value [7] was 0. For the same compound, the “Velvetleaf plant response rating” value [8, 21] was 50, the “Plant response rating, Velvetleaf” value [8, 22] was 90 and the “Wheat plant response rating (0 to 100 scale)” value ([9]; 125 g ai/ha) was 0. For the same compound, the “Wheat plant response rating” value [9, 23] was 0, the “Plant response rating, Barnyardgrass” value [10] was 0 and the “Foxtail, Giant plant response rating” value [11, 21] was 0. For the same compound, the “Plant response rating, Foxtail, Giant” value [11, 22] was 10, the “Velvetleaf plant response rating (0 to 100 scale)” value ([12]; 125 g ai/ha) was 10 and the “Velvetleaf plant response rating” value [12, 23] was 20. For the same compound, the “Barnyardgrass plant response rating” value [13, 21] was 0, the “Plant response rating, Barnyardgrass” value [13, 22] was 0 and the “Pigweed plant response rating (0 to 100 scale)” value ([14]; 125 g ai/ha) was 10. The “Pigweed plant response rating” value [14, 23] was 60, the “Plant response rating, Rice” value [15] was 0 and the “Crabgrass, Large plant response rating (0 to 100 scale)” value (“Crabgrass … (0 to 100 scale)” below) ([16]; 125 g ai/ha) was 0. For the same compound, the “Crabgrass, Large plant response rating” value [16, 23] was 10, the “Barnyardgrass plant response rating (0 to 100 scale, 0 is no effect, 100 is complete control)” value ([17]; 125 g ai/ha) was 0 and the “Barnyardgrass plant response rating” value [17, 23] was 0. The “Corn plant response rating (0 to 100 scale)” value ([18]; 125 g ai/ha) was 0, the “Corn plant response rating” value [18, 23] was 0 and the “Morningglory plant response rating (0 to 100 scale)” value ([19]; 125 g ai/ha) was 0. For the same compound, the “Morningglory plant response rating” value [19, 23] was 0, the “Morningglory plant response rating” value [20, 21] was 0 and the “Plant response rating, Morningglory” value [20, 22] was 10.
`Clc1cnc(Oc2ccccc2-n2cc(-c3ccccn3)cn2)nc1` [Compound 190] was tested, and the “Plant response rating, Ducksalad” value [1] was 0, the “Crabgrass, Large plant response rating” value [2, 21] was 10 and the “Plant response rating, Crabgrass, Large” value [2, 22] was 50. The “Foxtail … (0 to 100 scale)” value ([3]; 125 g ai/ha) was 10, the “Foxtail, Giant plant response rating” value [3, 23] was 80 and the “Pigweed plant response rating” value [4, 21] was 100. The “Plant response rating, Pigweed” value [4, 22] was 100, the “Wheat plant response rating” value [5, 21] was 0 and the “Plant response rating, Wheat” value [5, 22] was 0. For the same compound, the “Corn plant response rating” value [6, 21] was 0, the “Plant response rating, Corn” value [6, 22] was 20 and the “Plant response rating, Sedge, Umbrella” value [7] was 0. The “Velvetleaf plant response rating” value [8, 21] was 60, the “Plant response rating, Velvetleaf” value [8, 22] was 80 and the “Wheat plant response rating (0 to 100 scale)” value ([9]; 125 g ai/ha) was 0. For the same compound, the “Wheat plant response rating” value [9, 23] was 0, the “Plant response rating, Barnyardgrass” value [10] was 0 and the “Foxtail, Giant plant response rating” value [11, 21] was 0. For the same compound, the “Plant response rating, Foxtail, Giant” value [11, 22] was 40, the “Velvetleaf plant response rating (0 to 100 scale)” value ([12]; 125 g ai/ha) was 50 and the “Velvetleaf plant response rating” value [12, 23] was 60. The “Barnyardgrass plant response rating” value [13, 21] was 0, the “Plant response rating, Barnyardgrass” value [13, 22] was 10 and the “Pigweed plant response rating (0 to 100 scale)” value ([14]; 125 g ai/ha) was 100. The “Pigweed plant response rating” value [14, 23] was 100, the “Plant response rating, Rice” value [15] was 0 and the “Crabgrass … (0 to 100 scale)” value ([16]; 125 g ai/ha) was 20. For the same compound, the “Crabgrass, Large plant response rating” value [16, 23] was 90, the “Barnyardgrass plant response rating (0 to 100 scale, 0 is no effect, 100 is complete control)” value ([17]; 125 g ai/ha) was 0 and the “Barnyardgrass plant response rating” value [17, 23] was 10. For the same compound, the “Corn plant response rating (0 to 100 scale)” value ([18]; 125 g ai/ha) was 0, the “Corn plant response rating” value [18, 23] was 0 and the “Morningglory plant response rating (0 to 100 scale)” value ([19]; 125 g ai/ha) was 0. The “Morningglory plant response rating” value [19, 23] was 20, the “Morningglory plant response rating” value [20, 21] was 30 and the “Plant response rating, Morningglory” value [20, 22] was 90.
In the case of `Brc1cnc(Oc2ccccc2-n2ccc(Br)n2)nc1` [Compound 20], the “Plant response rating, Ducksalad” value [1] is reported as 60, the “Plant response rating, Crabgrass, Large” value [2, 21] is reported as 0 and the “Plant response rating, Crabgrass, Large” value [2, 24] is reported as 30. The “Plant response rating, Foxtail, Giant” value [3, 21] was 20, the “Foxtail, Giant plant response rating” value [3, 25] was 80 and the “Plant response rating, Pigweed” value [4, 21] was 80. For the same compound, the “Plant response rating, Pigweed” value [4, 24] was 100, the “Plant response rating, Wheat” value [5, 21] was 0 and the “Plant response rating, Wheat” value [5, 24] was 20. The “Plant response rating, Corn” value [6, 21] was 0, the “Plant response rating, Corn” value [6, 24] was 30 and the “Plant response rating, Sedge, Umbrella” value [7] was 75. The “Plant response rating, Velvetleaf” value [8, 21] was 20, the “Plant response rating, Velvetleaf” value [8, 24] was 70 and the “Plant response rating, Wheat” value [9, 21] was 0. For the same compound, the “Wheat plant response rating” value [9, 25] was 0, the “Plant response rating, Barnyardgrass” value [10] was 20 and the “Plant response rating, Foxtail, Giant” value [11, 21] was 0. For the same compound, the “Plant response rating, Foxtail, Giant” value [11, 24] was 60, the “Plant response rating, Velvetleaf” value [12, 21] was 0 and the “Velvetleaf plant response rating” value [12, 25] was 0. The “Plant response rating, Barnyardgrass” value [13, 21] was 0, the “Plant response rating, Barnyardgrass” value [13, 24] was 30 and the “Plant response rating, Pigweed” value [14, 21] was 30. The “Pigweed plant response rating” value [14, 25] was 90, the “Plant response rating, Rice” value [15] was 45 and the “Plant response rating, Crabgrass, Large” value [16, 21] was 20. For the same compound, the “Crabgrass, Large plant response rating” value [16, 25] was 90, the “Plant response rating, Barnyardgrass” value [17, 21] was 0 and the “Barnyardgrass plant response rating” value [17, 25] was 20. The “Plant response rating, Corn” value [18, 21] was 0, the “Corn plant response rating” value [18, 25] was 0 and the “Plant response rating, Morningglory” value [19, 21] was 0. For the same compound, the “Morningglory plant response rating” value [19, 25] was 0, the “Plant response rating, Morningglory” value [20, 21] was 40 and the “Plant response rating, Morningglory” value [20, 24] was 40.
`O=Cc1cccc(Oc2ncc(Br)cn2)c1-n1cc(Br)cn1` [Compound 230] was tested, and the “Plant response rating, Ducksalad” value [1] was 20, the “Crabgrass, Large plant response rating” value [2, 21] was 0 and the “Plant response rating, Crabgrass, Large” value [2, 22] was 10. For the same compound, the “Foxtail … (0 to 100 scale)” value ([3]; 125 g ai/ha) was 0, the “Foxtail, Giant plant response rating” value [3, 23] was 0 and the “Pigweed plant response rating” value [4, 21] was 30. For the same compound, the “Plant response rating, Pigweed” value [4, 22] was 60, the “Wheat plant response rating” value [5, 21] was 0 and the “Plant response rating, Wheat” value [5, 22] was 0. For the same compound, the “Corn plant response rating” value [6, 21] was 0, the “Plant response rating, Corn” value [6, 22] was 0 and the “Plant response rating, Sedge, Umbrella” value [7] was 50. For the same compound, the “Velvetleaf plant response rating” value [8, 21] was 0, the “Plant response rating, Velvetleaf” value [8, 22] was 30 and the “Wheat plant response rating (0 to 100 scale)” value ([9]; 125 g ai/ha) was 0. For the same compound, the “Wheat plant response rating” value [9, 23] was 0, the “Plant response rating, Barnyardgrass” value [10] was 20 and the “Foxtail, Giant plant response rating” value [11, 21] was 0. The “Plant response rating, Foxtail, Giant” value [11, 22] was 20, the “Velvetleaf plant response rating (0 to 100 scale)” value ([12]; 125 g ai/ha) was 0 and the “Velvetleaf plant response rating” value [12, 23] was 0. For the same compound, the “Barnyardgrass plant response rating” value [13, 21] was 0, the “Plant response rating, Barnyardgrass” value [13, 22] was 20 and the “Pigweed plant response rating (0 to 100 scale)” value ([14]; 125 g ai/ha) was 0. The “Pigweed plant response rating” value [14, 23] was 70, the “Plant response rating, Rice” value [15] was 35 and the “Crabgrass … (0 to 100 scale)” value ([16]; 125 g ai/ha) was 0. The “Crabgrass, Large plant response rating” value [16, 23] was 0, the “Barnyardgrass plant response rating (0 to 100 scale, 0 is no effect, 100 is complete control)” value ([17]; 125 g ai/ha) was 0 and the “Barnyardgrass plant response rating” value [17, 23] was 0. For the same compound, the “Corn plant response rating (0 to 100 scale)” value ([18]; 125 g ai/ha) was 0, the “Corn plant response rating” value [18, 23] was 0 and the “Morningglory plant response rating (0 to 100 scale)” value ([19]; 125 g ai/ha) was 0. The “Morningglory plant response rating” value [19, 23] was 0, the “Morningglory plant response rating” value [20, 21] was 0 and the “Plant response rating, Morningglory” value [20, 22] was 0.
